Data: the Bradley open melting point set (2014)
“And” between values parts separate entries of the source, which are not always exact repeats. Identical values can stand only once. Counter-ions that a name gives are not always drawn.

Structure (SMILES) | melting point
Cc1cc(C)cc(C)c1 [Mesitylene] | -45 °C
COCC(=O)N(c1c(C)cccc1C)C(C)C(=O)OC (stereo not drawn) [Metalaxyl] | 72 °C
CS [Methanethiol] | -121 °C
Cn1cc[nH]c1=S [Methimazole] | 146 °C
COC(=O)c1ccc(N)cc1 [Methyl 4-aminobenzoate] | 114 °C
COC(=O)c1ccc(C=O)cc1 [Methyl 4-formylbenzoate] | 61 °C
COC(C)=O [Methyl acetate] | -98 °C
COC=O [Methyl formate] | -100 °C
CCCCCC(=O)OC [Methyl hexanoate] | -71 °C
CC1CCCCC1 [Methylcyclohexane] | -127 °C
c1ccc(P(CP(c2ccccc2)c2ccccc2)c2ccccc2)cc1 [Methylenebis(diphenylphosphine)] | 121 °C
Cc1ncc2n1-c1ccc(Cl)cc1C(c1ccccc1F)=NC2 [Midazolam] | 159 °C
COc1ccc(OC)c(C(O)CNC(=O)CN)c1 (stereo not drawn) [Midodrine] | 202 °C
Nc1cc(N2CCCCC2)nc(N)[n+]1[O-] [Minoxidil] | 248 °C
CN(C)C(=O)Nc1ccc(Cl)cc1 [Monuron] | 174 °C
COc1c(N2C[C@@H]3CCCN[C@@H]3C2)c(F)cc2c(=O)c(C(=O)O)cn(C3CC3)c12 [Moxifloxacin] | 240 °C
CCCC(=O)NNc1ccccc1 [N'-phenylbutanehydrazide] | 104 °C

Structure (SMILES) | melting point
O=C(N[C@@H](Cc1c[nH]c2ccccc12)C(=O)O)OCc1ccccc1 [N(alpha)-benzyloxycarbonyl-l-tryptophan] | 124 °C
Cc1cc(-c2ccc(NC=O)c(C)c2)ccc1NC=O [N,N'-(3,3'-dimethylbiphenyl-4,4'-diyl)diformamide] | 268 °C
O=CNC1C/C=C/CC(NC=O)C/C=C/C1 (stereo not drawn) [N,N'-(3E,8E)-cyclodeca-3,8-diene-1,6-diyldiformamide] | 234 °C
O=[N+]([O-])c1cc(C=Nc2ccccc2)ccc1C=Nc1ccccc1 [N,N'-[(2-nitrobenzene-1,4-diyl)di(E)methylylidene]dianiline] | 134 °C
Oc1ccccc1C=NCCCN=Cc1ccccc1O [N,N'-bis(salicylidene)-1,3-propanediamine] | 52 °C
CCCCNC(=O)NCCCC [N,N'-di-n-butylurea] | 72 °C
CCN(CC)CC [N,N-Diethylethanamine] | -115 °C
CCN(CC)c1ccc(N=O)cc1 [N,N-diethyl-4-nitrosoaniline] | 82 °C
CN(C)CCCN [N,N-dimethyl-1,3-propanediamine] | -70 °C
CN(C)c1ccc(C2CNCCN2)cc1 (stereo not drawn) [N,N-dimethyl-4-(2-piperazinyl)aniline] | 128 °C
CN(C)c1ccc([N+](=O)[O-])cc1 [N,N-dimethyl-4-nitroaniline] | 165 °C
CCCCCCCCN(C)C [N,N-dimethyl-n-octylamine] | -57 °C
Cc1ccccc1NC=O [N-(2-Methylphenyl)formamide] | 53 °C
CN(C)C(=O)Nc1ccc(Cl)cc1 [N-(4-chlorophenyl)-N',N'-dimethylurea] | 173 °C
CC(=O)NCO [N-(hydroxymethyl)acetamide] | 50 °C
C=CC(=O)OCCCC [N-butyl acrylate] | -64 °C

Further lines, results first:

melting point | Structure (SMILES)
90 °C | CC(=O)NC1=C(C)CCCC1 [N-(2-methylcyclohex-1-en-1-yl)acetamide]
105 °C | CCCCc1ccc(NC(C)=O)cc1 [N-(4-butylphenyl)acetamide]
65 °C and 62.3 °C and 63 °C | COc1ccc(C=Nc2ccccc2)cc1 [N-(4-methoxybenzylidene)aniline]
218 °C | CC(=O)Nc1cccc2c([N+](=O)[O-])cccc12 [N-(5-nitronaphthalen-1-yl)acetamide]
165 °C | O=C1CCC(=O)N1C1CCCCC1 [N-(cyclohexyl)succinimide]
205 °C | CC(=O)N[C@H]1C(O)O[C@H](CO)[C@@H](O)[C@@H]1O (stereo partly drawn) [N-Acetyl-D-glucosamine]
217 °C | O=C(NC/1=N/C(=O)c2ncn(c2N\1)COCCO)C [N-Acetylacyclovir]
43 °C | CCCCCCCCCCNCCCCCCCCCC [N-Decyldecan-1-amine]
119 °C | O=C(c1ccccc1)N(O)c1ccccc1 [N-Hydroxy-N-phenylbenzamide]
14 °C | CCCCCCCCNCCCCCCCC [N-Octyloctan-1-amine]
-44 °C | CCCCCNCCCCC [N-Pentylpentan-1-amine]
-40 °C | CCCNCCC [N-Propylpropan-1-amine]
-34 °C | CCCCC(=O)O [N-Valeric Acid]
152 °C | CC(=O)Nc1ccccc1C1C=c2ccccc2=N1 (stereo not drawn) [N-[2-(1H-indol-2-yl)phenyl]acetamide]
119 °C | CC(=O)Nc1ccccc1C#Cc1ccccc1 [N-[2-(phenylethynyl)phenyl]acetamide]
173 °C | CC(=O)Nc1ccc(-c2ccc3nn(-c4ccccc4)nc3c2)cc1 [N-[4-(2-phenyl-2H-benzotriazol-5-yl)phenyl]acetamide]
110 °C | CC(=O)N[C@@H](CS)C(=O)O [N-acetyl-l-cysteine]
168 °C | CC(=O)N[C@@H](Cc1ccccc1)C(=O)O [N-acetyl-l-phenylalanine]

melting point | Structure (SMILES)
119 °C | O=C(c1ccccc1)N(O)c1ccccc1 [N-benzoyl-N-phenylhydroxylamine]
106 °C | O=C(NCc1ccccc1)c1ccccc1 [N-benzylbenzamide]
106 °C | O=C(C[C@H](NC(=O)OCc1ccccc1)C(=O)O)OCc1ccccc1 [N-benzyloxycarbonyl-l-aspartic acid 4-benzyl ester]
67 °C | COC(=O)[C@H](CCC(=O)O)NC(=O)OCc1ccccc1 [N-benzyloxycarbonyl-l-glutamic acid 1-methyl ester]
86 °C | O=C(N[C@@H](Cc1ccccc1)C(=O)O)OCc1ccccc1 [N-benzyloxycarbonyl-l-phenylalanine]
119 °C | O=C(N[C@@H](CO)C(=O)O)OCc1ccccc1 [N-benzyloxycarbonyl-l-serine]
135 °C | CC(C)(C)OC(=O)N[C@@H](Cc1ccc(Cl)cc1Cl)C(=O)O [N-boc-2,4-dichloro-L-phenylalanine]
98 °C | CC(C)(C)OC(=O)N[C@](C)(C(=O)O)c1ccc2ccccc2c1 [N-boc-2-(2-naphthyl)-D-alanine]
74 °C | CC(C)(C)OC(=O)N[C@@H](Cc1cccs1)C(=O)O [N-boc-3-(2-thienyl)-L-alanine]
49 °C | CSCC[C@@H](NC(=O)OC(C)(C)C)C(=O)O [N-boc-D-methionine]
134 °C | CC(C)(C)OC(=O)N1CCC[C@@H]1C(=O)O [N-boc-D-proline]
134 °C | CC(C)(C)OC(=O)N1CCC[C@H]1C(=O)O [N-boc-L-proline]
40 °C | CCNC(=O)OC(C)(C)C [N-boc-ethylamine]
89 °C | CC(C)(C)OC(=O)NCC(=O)O [N-boc-glycine]
-22 °C | CCCCOC(=O)c1ccccc1 [N-butyl benzoate]
-92 °C | CCCCOC(=O)CCC [N-butyl butyrate]
-10 °C | CCCCCCCCCCCC(=O)OCCCC [N-butyl dodecanoate]
